According to the NIST ThermoML archive (doi:10.1021/je050334+):
± gives the expanded uncertainty stated by the source.

Conditions: Liquid, Transpiration method

COC(=O)CCCCC(=O)OC [dimethyl 1,6-hexanedioate]
vapor or sublimation pressure (293.2 K): 0.00253 ± 0.00014 kPa | vapor or sublimation pressure (296.2 K): 0.00336 ± 0.00018 kPa | vapor or sublimation pressure (299.2 K): 0.00443 ± 0.00024 kPa | vapor or sublimation pressure (302.2 K): 0.00586 ± 0.00031 kPa | vapor or sublimation pressure (305.2 K): 0.0074 ± 0.00039 kPa | vapor or sublimation pressure (308.2 K): 0.00991 ± 0.00052 kPa | vapor or sublimation pressure (310.2 K): 0.01133 ± 0.0006 kPa | vapor or sublimation pressure (313.3 K): 0.01454 ± 0.00076 kPa | vapor or sublimation pressure (316.2 K): 0.01794 ± 0.00095 kPa | vapor or sublimation pressure (319.3 K): 0.02356 ± 0.0012 kPa | vapor or sublimation pressure (322.2 K): 0.02831 ± 0.0015 kPa | vapor or sublimation pressure (325.3 K): 0.03778 ± 0.002 kPa | vapor or sublimation pressure (328.2 K): 0.04592 ± 0.0024 kPa | vapor or sublimation pressure (331.2 K): 0.05704 ± 0.003 kPa | vapor or sublimation pressure (334.2 K): 0.06981 ± 0.0036 kPa

CCOC(=O)c1ccccc1 [ethyl benzoate]
vapor or sublimation pressure (283.9 K): 0.0071 ± 0.0004 kPa | vapor or sublimation pressure (286.9 K): 0.0093 ± 0.0005 kPa | vapor or sublimation pressure (289 K): 0.0113 ± 0.0006 kPa | vapor or sublimation pressure (292 K): 0.0143 ± 0.0008 kPa | vapor or sublimation pressure (294.1 K): 0.0174 ± 0.0009 kPa | vapor or sublimation pressure (295 K): 0.0183 ± 0.001 kPa | vapor or sublimation pressure (298.1 K): 0.0239 ± 0.0012 kPa | vapor or sublimation pressure (299.1 K): 0.0254 ± 0.0014 kPa | vapor or sublimation pressure (301.2 K): 0.0312 ± 0.0016 kPa | vapor or sublimation pressure (304.2 K): 0.039 ± 0.002 kPa | vapor or sublimation pressure (307.2 K): 0.0472 ± 0.0025 kPa | vapor or sublimation pressure (310.1 K): 0.0597 ± 0.0031 kPa | vapor or sublimation pressure (312.3 K): 0.0716 ± 0.0037 kPa | vapor or sublimation pressure (315.3 K): 0.0862 ± 0.0045 kPa | vapor or sublimation pressure (317.3 K): 0.1055 ± 0.0056 kPa | vapor or sublimation pressure (320.3 K): 0.1297 ± 0.0068 kPa | vapor or sublimation pressure (323.4 K): 0.1656 ± 0.0086 kPa | vapor or sublimation pressure (326.4 K): 0.2016 ± 0.01 kPa | vapor or sublimation pressure (329.5 K): 0.2452 ± 0.013 kPa | vapor or sublimation pressure (332.5 K): 0.2944 ± 0.015 kPa
